# Several values for one entry are separate records, joined by “and”; a condition that tells them apart may be missing. Equal values may be shown once.
# Assays:
# NIH-3T3 [1] = test: MTT analysis, cytotoxicity against normal cell line; type: cell-based, mouse; conditions: MTT, 48 hr
# HS-746T = test: MTT analysis, anticancer activity; type: cell-based, human; conditions: MTT, 48 hr
# HS-578T = test: MTT analysis, anticancer activity; type: cell-based, human; conditions: MTT, 48 hr
# SK-BR-3 = test: MTT analysis, anticancer activity; type: cell-based, human; conditions: 48 hr
# BT-549 = test: MTT analysis, anticancer activity; type: cell-based, human; conditions: MTT, 48 hr
# NIH-3T3 [2] = test: Adhesion of cell to Matri-Gel; type: cell-based, mouse
# Description: (§1) After treating HNP-98701 on tissue culture plate coated with the matrices, cancer cell was attached thereupon. To be specific, 50 μl/ml of […], 2 μg/ml of laminin, 2 μg/ml of collagen and 2 μg/ml of gelatin were coated on the surface of 96-well microplate (Corning Co.) per well. After solidifying for 2 hr, HNP-98701 was added to each well and treated for 1 hr. […] After treating the substances for 1 hr, cancer cell was added to each cell, and it was cultured for 3 hr. […] After culturing these cell lines for 3 hr, they were centrifuged. After collecting biomass only, it was washed with distilled water or PBS buffer solution for three times. […] Then, absorbance was measured at 560-405 nm with automatic Eliza detector (Molecular […] Corp., USA). […] Each experiment was performed for three times repeatedly.
# SK-Hep-1 [3] = test: Adhesion of cancer cell to Matri-Gel; type: cell-based, human
# Description: as §1
# NCI-H69 = test: MTT analysis, anticancer activity; type: cell-based, human; conditions: MTT, 48 hr
# NIH-3T3 [4] = test: Adhesion of cell to Laminin; type: cell-based, mouse
# Description: as §1
# A431 = test: MTT analysis, anticancer activity; type: cell-based, human; conditions: 48 hr
# [5] = tested on: DU-145 prostate cancer cell line; test: MTT analysis, anticancer activity; type: cell-based, human; conditions: 48 hr
# Description: (§2) To be specific, SK-Hep-1 cell, which is liver cancer cell line, was added to 96-well microplate (Falcon, USA) with the concentration of 3×10^5 cells/ml by 100 μl per well. Each extracted and separated substance dissolved in DMSO was added to the well by 100 μl for the final concentration to be from 50 μg/ml to 0.0244 μg/ml, with 200 μl of final volume. Each cell was cultured for 48 hr in a culture medium of 37° C. and 5% CO2. After cultivation, 20 μl of phosphate buffer solution containing 5 mg/ml of MTT (3-[4,5-dimethylthiazol-2-yl]-2,5-diphenyltetrazoliumbromide, Sigma Co.) reagent was added to each well, and then cultured for 4 hr. After taking 100 μl of supernant from each culture medium, 100 μl of 0.04N hydrochloric acid-isopropanol was added. After letting alone overnight, absorbance was measured at 560 nm using automatic Eliza detector (Molecular Divices Corp., USA). Anticancer activity of each extracted and separated substance was calculated from the absorbance value by Equation 1 and was expressed in terms of cell.
# (§3) Average Existence Rate(%)=(Absorbance of Treated Group)/(Absorbance of Control Group)×100
# Hep-2 [6] = test: MTT analysis, anticancer activity; type: cell-based, human; conditions: MTT, 48 hr
# HT-29 = test: MTT analysis, anticancer activity; type: cell-based, human; conditions: MTT, 48 hr
# NIH-3T3 [7] = test: Adhesion of cell to Gelatin; type: cell-based, mouse
# Description: as §1
# SK-MEL-28 [8] = test: Adhesion of cancer cell to Collagen; type: cell-based, human
# Description: as §1
# Hep-2 [9] = test: Adhesion of cancer cell to Collagen; type: cell-based, human
# Description: as §1
# SK-Hep-1 [10] = test: Adhesion of cancer cell to Collagen; type: cell-based, human
# Description: as §1
# SK-N-SH = test: MTT analysis, anticancer activity; type: cell-based, human; conditions: 48 hr
# BT-20 = test: MTT analysis, anticancer activity; type: cell-based, human; conditions: 48 hr
# 3T3-L1 = test: MTT analysis, cytotoxicity against normal cell line; type: cell-based, mouse; conditions: MTT, 48 hr
# HS683 = test: MTT analysis, anticancer activity; type: cell-based, human; conditions: 48 hr
# SK-MEL-28 [11] = test: MTT analysis, anticancer activity; type: cell-based, human; conditions: 48 hr
# HeLa = test: MTT analysis, anticancer activity; type: cell-based, human; conditions: 48 hr
# [12] = tested on: SK-Hep-1 liver cancer cell line; test: MTT analysis, anticancer activity; type: cell-based, human; conditions: 48 hr
# Description: as §2, §3
# SK-OV-3 = test: MTT analysis, anticancer activity; type: cell-based, human; conditions: MTT, 48 hr
# 293 = test: MTT analysis, cytotoxicity against normal cell line; type: cell-based, human; conditions: MTT, 48 hr
# KATO-III = test: MTT analysis, anticancer activity; type: cell-based, human; conditions: MTT, 48 hr
# HS27 = test: MTT analysis, cytotoxicity against normal cell line; type: cell-based, human; conditions: MTT, 48 hr
# CPAE = test: as above; type: cell-based, bovine; conditions: MTT, 48 hr
# T98G = test: MTT analysis, anticancer activity; type: cell-based, human; conditions: 48 hr
# SK-MEL-28 [13] = test: Adhesion of cancer cell to Gelatin; type: cell-based, human
# Description: as §1
# Hep-2 [14] = test: Adhesion of cancer cell to Gelatin; type: cell-based, human
# Description: as §1
# SK-Hep-1 [15] = test: Adhesion of cancer cell to Gelatin; type: cell-based, human
# Description: as §1
# ME-180 = test: MTT analysis, anticancer activity; type: cell-based, human; conditions: MTT, 48 hr
# SK-MEL-28 [16] = test: Adhesion of cancer cell to Laminin; type: cell-based, human
# Description: as §1
# Hep-2 [17] = test: Adhesion of cancer cell to Laminin; type: cell-based, human
# Description: as §1
# SK-Hep-1 [18] = test: Adhesion of cancer cell to Laminin; type: cell-based, human
# Description: as §1
# HT1080 = test: MTT analysis, anticancer activity; type: cell-based, human; conditions: 48 hr
# T-47D = test: MTT analysis, anticancer activity; type: cell-based, human; conditions: 48 hr
# CHO = test: MTT analysis, cytotoxicity against normal cell line; type: cell-based, Chinese hamster; conditions: MTT, 48 hr
# MCF-7 = test: MTT analysis, anticancer activity; type: cell-based, human; conditions: MTT, 48 hr
# [19] = tested on: PC-3 prostate cancer cell line; test: MTT analysis, anticancer activity; type: cell-based, human; conditions: 48 hr
# Description: as §2, §3
# LoVo = test: MTT analysis, anticancer activity; type: cell-based, human; conditions: MTT, 48 hr
# NIH-3T3 [20] = test: Adhesion of cell to Collagen; type: cell-based, mouse
# Description: as §1
smiles,measurement,setting,value
N.N.[Cl][Pt][Cl] [Cisplatin],IC50 NIH-3T3,NIH-3T3 [1],1.9756 µg/mL
same,IC50 HS-746T,HS-746T,2.7680 µg/mL
same,IC50 HS-578T,HS-578T,2.3317 µg/mL
same,IC50 SK-BR-3,SK-BR-3,1.1748 µg/mL
same,IC50 BT-549,BT-549,1.2522 µg/mL
same,Adhesion NIH-3T3 (%),NIH-3T3 [2]; 0.5 μg/ml,105.67%
same,Adhesion NIH-3T3 (%),NIH-3T3 [2]; 5 μg/ml,102.40%
same,Adhesion NIH-3T3 (%),NIH-3T3 [2]; 50 μg/ml,101.06%
same,Adhesion SK-Hep-1 (%),SK-Hep-1 [3]; 0.5 μg/ml,96.41%
same,Adhesion SK-Hep-1 (%),SK-Hep-1 [3]; 5 μg/ml,105.27%
same,Adhesion SK-Hep-1 (%),SK-Hep-1 [3]; 50 μg/ml,108.26%
same,IC50 NCI-H69,NCI-H69,0.6382 µg/mL
same,Adhesion NIH-3T3 (%),NIH-3T3 [4]; 0.5 μg/ml,93.86%
same,Adhesion NIH-3T3 (%),NIH-3T3 [4]; 5 μg/ml,94.94%
same,Adhesion NIH-3T3 (%),NIH-3T3 [4]; 50 μg/ml,92.45%
same,IC50 A431,A431,0.4240 µg/mL
same,IC50 DU-145,[5],3.0012 µg/mL
same,IC50 Hep-2,Hep-2 [6],0.5518 µg/mL
same,IC50 HT-29,HT-29,6.1224 µg/mL
same,Adhesion NIH-3T3 (%),NIH-3T3 [7]; 0.5 μg/ml,111.43%
same,Adhesion NIH-3T3 (%),NIH-3T3 [7]; 5 μg/ml,110.48%
same,Adhesion NIH-3T3 (%),NIH-3T3 [7]; 50 μg/ml,100.10%
same,Adhesion SK-MEL-28 (%),SK-MEL-28 [8]; 0.5 μg/ml,98.46%
same,Adhesion SK-MEL-28 (%),SK-MEL-28 [8]; 5 μg/ml,106.83%
same,Adhesion SK-MEL-28 (%),SK-MEL-28 [8]; 50 μg/ml,117.62%
same,Adhesion Hep-2 (%),Hep-2 [9]; 0.5 μg/ml,92.23%
same,Adhesion Hep-2 (%),Hep-2 [9]; 5 μg/ml,89.35%
same,Adhesion Hep-2 (%),Hep-2 [9]; 50 μg/ml,82.83%
same,Adhesion SK-Hep-1 (%),SK-Hep-1 [10]; 0.5 μg/ml,104.22%
same,Adhesion SK-Hep-1 (%),SK-Hep-1 [10]; 5 μg/ml,104.57%
same,Adhesion SK-Hep-1 (%),SK-Hep-1 [10]; 50 μg/ml,95.90%
same,IC50 SK-N-SH,SK-N-SH,2.1178 µg/mL
same,IC50 BT-20,BT-20,1.4578 µg/mL
same,IC50 3T3-L1,3T3-L1,2.7096 µg/mL
same,IC50 HS683,HS683,0.2490 µg/mL
same,IC50 SK-MEL-28,SK-MEL-28 [11],4.3157 µg/mL
same,IC50 HeLa,HeLa,5.3358 µg/mL
same,IC50 SK-Hep-1,[12],5.4350 µg/mL and 4.2950 µg/mL
same,IC50 SK-OV-3,SK-OV-3,5.3442 µg/mL
same,IC50 293,293,1.1678 µg/mL
same,IC50 KATO-III,KATO-III,2.2875 µg/mL
same,IC50 HS27,HS27,1.7853 µg/mL
same,IC50 CPAE,CPAE,0.8252 µg/mL
same,IC50 T98G,T98G,7.9216 µg/mL
same,Adhesion SK-MEL-28 (%),SK-MEL-28 [13]; 0.5 μg/ml,92.48%
same,Adhesion SK-MEL-28 (%),SK-MEL-28 [13]; 5 μg/ml,91.13%
same,Adhesion SK-MEL-28 (%),SK-MEL-28 [13]; 50 μg/ml,86.40%
same,Adhesion Hep-2 (%),Hep-2 [14]; 0.5 μg/ml,97.20%
same,Adhesion Hep-2 (%),Hep-2 [14]; 5 μg/ml,100.13%
same,Adhesion Hep-2 (%),Hep-2 [14]; 50 μg/ml,91.07%
same,Adhesion SK-Hep-1 (%),SK-Hep-1 [15]; 0.5 μg/ml,79.16%
same,Adhesion SK-Hep-1 (%),SK-Hep-1 [15]; 5 μg/ml,74.84%
same,Adhesion SK-Hep-1 (%),SK-Hep-1 [15]; 50 μg/ml,61.25%
same,IC50 ME-180,ME-180,0.9365 μg/ml
same,Adhesion SK-MEL-28 (%),SK-MEL-28 [16]; 0.5 μg/ml,110.19%
same,Adhesion SK-MEL-28 (%),SK-MEL-28 [16]; 5 μg/ml,105.36%
same,Adhesion SK-MEL-28 (%),SK-MEL-28 [16]; 50 μg/ml,101.16%
same,Adhesion Hep-2 (%),Hep-2 [17]; 0.5 μg/ml,102.63%
same,Adhesion Hep-2 (%),Hep-2 [17]; 5 μg/ml,101.25%
same,Adhesion Hep-2 (%),Hep-2 [17]; 50 μg/ml,95.87%
same,Adhesion SK-Hep-1 (%),SK-Hep-1 [18]; 0.5 μg/ml,95.65%
same,Adhesion SK-Hep-1 (%),SK-Hep-1 [18]; 5 μg/ml,93.53%
same,Adhesion SK-Hep-1 (%),SK-Hep-1 [18]; 50 μg/ml,88.74%
same,IC50 HT1080,HT1080,2.9512 µg/mL
same,IC50 T-47D,T-47D,2.0468 µg/mL
same,IC50 CHO,CHO,2.8462 µg/mL
same,IC50 MCF-7,MCF-7,2.9412 µg/mL
same,IC50 PC-3,[19],2.4867 µg/mL
same,IC50 LoVo,LoVo,0.7318 µg/mL
same,Adhesion NIH-3T3 (%),NIH-3T3 [20]; 0.5 μg/ml,112.51%
same,Adhesion NIH-3T3 (%),NIH-3T3 [20]; 5 μg/ml,108.91%
same,Adhesion NIH-3T3 (%),NIH-3T3 [20]; 50 μg/ml,98.94%
